Experimental data from ChEMBL document CHEMBL3046649, “Fungitoxic and Phytotoxic Activities of Cinnamic Acid Esters and Amides” (2000).

Columns and labels:
[1] = tested on: Brassica rapa subsp. chinensis; assay: whole plant or invertebrate; format: functional; conditions: 72 h, read-out: GI
Description: Phytotoxicity against Brassica rapa subsp. chinensis assessed as growth inhibition of hypocotyl at 100 ppm treated to seeds after 3 days

[2] = tested on: Brassica rapa subsp. chinensis; assay: whole plant or invertebrate; format: functional; conditions: 72 h, read-out: GI; remark: listed apart in the source
Description: Phytotoxicity against Brassica rapa subsp. chinensis assessed as growth inhibition of radicle at 100 ppm treated to seeds after 3 days

Pythium [3] = assay: microbe, parasite or virus in culture; format: functional; conditions: read-out: GI
Description: Fungitoxic activity against Pythium sp. assessed as mycelial growth inhibition at 100 ppm after 4 to 5 days by agar dilution method

Athelia rolfsii [4] = assay: microbe, parasite or virus in culture; format: functional; conditions: Agroathelia rolfsii, read-out: GI
Description: Fungitoxic activity against Athelia rolfsii assessed as mycelial growth inhibition at 100 ppm after 4 to 5 days by agar dilution method

Athelia rolfsii [5] = assay: Fungitoxic activity against Athelia rolfsii assessed as mycelial growth inhibition at 10 ppm after 4 to 5 days by agar dilution method; format: functional; conditions: Agroathelia rolfsii; read-out: GI
Pythium [6] = assay: Fungitoxic activity against Pythium sp. assessed as mycelial growth inhibition at 10 ppm after 4 to 5 days by agar dilution method; conditions: read-out: GI

SMILES | inhibition of growth at 100 ppm [1] [%] | inhibition of growth at 100 ppm [2] [%] | inhibition of growth at 100 ppm (Pythium [3]) [%] | inhibition of growth at 100 ppm (Athelia rolfsii [4]) [%] | inhibition of growth at 10 ppm (Athelia rolfsii [5]) [%] | inhibition of growth at 10 ppm (Pythium [6]) [%]
CCCNC(=O)/C=C/c1ccc(C(C)C)cc1 | 30 | 52 | 84 | 88 | 28 | 41
Cc1cccc(C)c1NC(=O)/C=C/c1ccccc1 | 0 | 0 | 31 | 13 |  | 
CCc1ccccc1NC(=O)/C=C/c1ccccc1 | 0 | 21 | 26 | 19 |  | 
Cc1ccc(NC(=O)/C=C/c2ccccc2)c(C)c1 | 0 | 0 | 4 | 5 |  | 
Cc1cccc(NC(=O)/C=C/c2ccccc2)c1C | 32 | 56 | 16 | 12 |  | 
O=C(/C=C/c1ccc(Cl)cc1Cl)OCCOc1ccccc1 | 33 | 8 | 59 | 72 | 14 | 14
CC(C)=CCC/C(C)=C/COC(=O)/C=C/c1ccc(Cl)cc1Cl | 26 | 1 | 24 | 30 |  | 
CCCCCNC(=O)/C=C/c1ccccc1 | 60 | 76 | 78 | 87 | 18 | 23
CCCCCCCCCCNC(=O)/C=C/c1ccccc1 | 10 | 15 | 27 | 23 |  | 
CCc1cccc(NC(=O)/C=C/c2ccccc2)c1 | 2 | 66 | 74 | 53 | 35 | 31
CCc1ccc(NC(=O)/C=C/c2ccccc2)cc1 | 10 | 20 | 34 | 53 |  | 
CC(C)=CCC/C(C)=C/COC(=O)/C=C/c1ccc(C(C)C)cc1 | 30 | 0 | 72 | 88 | 21 | 8
Cc1ccc(OC(=O)/C=C/c2ccc(Cl)cc2)c(C(C)C)c1 | 41 | 18 | 13 | 41 |  | 
Cc1ccc(C(C)C)c(OC(=O)/C=C/c2ccc(Cl)cc2)c1 | 36 | 24 | 6 | 39 |  | 
O=C(/C=C/c1ccc(Cl)cc1)OCCOc1ccccc1 | 30 | 0 | 54 | 83 | 16 | 9
CC(C)=CCC/C(C)=C/COC(=O)/C=C/c1ccc(Cl)cc1 | 41 | 48 | 86 | 94 | 17 | 9
Cc1ccc(OC(=O)/C=C/c2ccc(Cl)cc2Cl)c(C(C)C)c1 | 32 | 0 | 15 | 67 | 21 | 
Cc1ccc(C(C)C)c(OC(=O)/C=C/c2ccc(Cl)cc2Cl)c1 | 33 | 0 | 29 | 33 |  | 
Cc1ccc(OC(=O)/C=C/c2ccc(C(C)C)cc2)c(C(C)C)c1 | 39 | 28 | 15 | 24 |  | 
Cc1ccc(C(C)C)c(OC(=O)/C=C/c2ccc(C(C)C)cc2)c1 | 42 | 30 | 2 | 0 |  | 
C=CCNC(=O)/C=C/c1ccccc1 | 63 | 64 | 52 | 90 | 6 | 20

SMILES | inhibition of growth at 100 ppm [1] [%] | inhibition of growth at 100 ppm [2] [%] | inhibition of growth at 100 ppm (Pythium [3]) [%] | inhibition of growth at 100 ppm (Athelia rolfsii [4]) [%] | inhibition of growth at 10 ppm (Athelia rolfsii [5]) [%] | inhibition of growth at 10 ppm (Pythium [6]) [%]
CC(C)=CCCC(C)CCOC(=O)/C=C/c1ccc(Cl)cc1Cl (centres undefined) [3,7-DIMETHYLOCT-6-ENYL 3-(2,4-DICHLOROPHENYL)ACRYLATE] | 25 | 0 | 0 | 15 |  | 
CC(C)CNC(=O)/C=C/c1ccc(Cl)cc1Cl [3-(2,4-DICHLOROPHENYL)-N-ISOBUTYLACRYLAMIDE] | 7 | 43 | 31 | 38 |  | 
CC(C)NC(=O)/C=C/c1ccc(Cl)cc1Cl [3-(2,4-DICHLOROPHENYL)-N-ISOPROPYLACRYLAMIDE] | 11 | 30 | 28 | 31 |  | 
CCCNC(=O)/C=C/c1ccc(Cl)cc1Cl [3-(2,4-DICHLOROPHENYL)-N-PROPYLACRYLAMIDE] | 18 | 26 | 29 | 43 |  | 
CCCCOC(=O)/C=C/c1ccccc1 [BUTYL CINNAMATE] | 5 | 0 | 17 | 42 |  | 
CC(C)OP(=O)(OC(C)C)SCc1ccccc1 [IPROBENFOS] |  |  | 89 | 100 | 69 | 42
CC(C)COC(=O)/C=C/c1ccccc1 [ISOBUTYL CINNAMATE] | 40 | 0 | 57 | 42 |  | 
O=C(/C=C/c1ccccc1)NCc1ccc(Cl)cc1Cl [N-(2,4-DICHLOROBENZYL)CINNAMAMIDE] | 0 | 43 | 41 | 51 |  | 
O=C(/C=C/c1ccccc1)NCc1ccccc1Cl [N-(2-CHLOROBENZYL)CINNAMAMIDE] | 70 | 88 | 23 | 41 |  | 
O=C(/C=C/c1ccccc1)NCc1ccc(Cl)cc1 [N-(4-CHLOROBENZYL)CINNAMAMIDE] | 6 | 44 | 33 | 27 |  | 
CCCCNC(=O)/C=C/c1ccc(Cl)cc1Cl [N-BUTYL-3-(2,4-DICHLOROPHENYL)ACRYLAMIDE] | 17 | 49 | 9 | 16 |  | 
CCCCCCCCCCCCNC(=O)/C=C/c1ccccc1 [N-DODECYLCINNAMAMIDE] | 48 | 32 | 21 | 13 |  | 
CCCCCCCCCCCCCCCCNC(=O)/C=C/c1ccccc1 [N-HEXADECYLCINNAMAMIDE] | 20 | 75 | 12 | 0 |  | 
Cc1ccccc1NC(=O)/C=C/c1ccccc1 [N-O-TOLYLCINNAMAMIDE] | 9 | 39 | 52 | 49 |  | 18
CCCCCCCCNC(=O)/C=C/c1ccccc1 [N-OCTYLCINNAMAMIDE] | 34 | 42 | 24 | 46 |  | 
Cc1ccc(NC(=O)/C=C/c2ccccc2)cc1 [N-P-TOLYLCINNAMAMIDE] | 24 | 57 | 59 | 47 |  | 35
CCC(C)NC(=O)/C=C/c1ccc(Cl)cc1Cl (centres undefined) [N-SEC-BUTYL-3-(2,4-DICHLOROPHENYL)ACRYLAMIDE] | 21 | 41 | 23 | 31 |  | 
CC(C)(C)NC(=O)/C=C/c1ccc(Cl)cc1Cl [N-TERT-BUTYL-3-(2,4-DICHLOROPHENYL)ACRYLAMIDE] | 11 | 26 | 22 | 21 |  | 
CC(C)(C)NC(=O)/C=C/c1ccc(Cl)cc1 [N-TERT-BUTYL-3-(4-CHLOROPHENYL)ACRYLAMIDE] | 29 | 55 | 21 | 71 | 60 | 
CC(C)c1ccc(/C=C/C(=O)NC(C)(C)C)cc1 [N-TERT-BUTYL-3-(4-ISOPROPYLPHENYL)ACRYLAMIDE] | 7 | 43 | 62 | 31 |  | 45
CCCOC/C(=N\c1ccc(Cl)cc1C(F)(F)F)n1ccnc1 [TRIFLUMIZOLE] |  |  | 94 | 100 | 64 | 71
